What all share (format): in vivo
Experiment [1] deals with STEME (Stellaria media). The experiment is described as follows: greenhouse post-emergence herbicidal test. In a few lines:
(§1)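 Post-emergence greenhouse test on plants grown to 3–15 cm in loamy sand (~3.0% humus), sprayed with active ingredient suspended or emulsified in water. Plants held at 10-25 °C or 20-35 °C by species for 2 to 4 weeks, then damage scored visually 0–100 (100 = complete destruction of aerial parts, 0 = no damage).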

In experiment [2] the test system is AMARE (Amaranthus retroflexus). In words: greenhouse post-emergence herbicidal test. Put shortly: as §1
The subject of experiment [3] is CHEAL (Chenopodium album). The experiment is described as follows: greenhouse post-emergence herbicidal test. To be noted: 0.125 kg/ha. In a few lines:
as §1

The subject of experiment [4] is ECHCG (Echinocloa crus-galli). The experiment is described as follows: greenhouse post-emergence herbicidal test. Put shortly:
as §1

Experiment [5] concerns CAPBP (Capsella bursa-pastoris). In words: greenhouse pre-emergence herbicidal test. Put shortly: (§2)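 Pre-emergence spray of aqueous suspension/emulsion immediately post-sowing; loamy sand, ~3.0% humus; hooded till rooted; 10-25° C. or 20-35° C. per species; 2-4 wk; scored 0 (no damage) to 100 (no emergence/aerial parts destroyed).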
Experiment [6] has as its system LAMPU (Lamium purpureum). The experiment is described as follows: greenhouse pre-emergence herbicidal test. Put shortly: as §2
Experiment [7] concerns GERDI (Geranium dissectum). The experiment is described as follows: greenhouse post-emergence herbicidal test. Put shortly:
as §1

The subject of experiment [8] is ABUTH (Abutilon theophrasti). In words: greenhouse post-emergence herbicidal test. In a few lines: as §1
Experiment [9] concerns POLCO (Polygonum convolvulus). The experiment is described as follows: greenhouse post-emergence herbicidal test. As to conditions: 0.062 kg/ha. Put shortly:
as §1

For experiment [10], the system named is STEME (Stellaria media). The experiment is described as follows: greenhouse pre-emergence herbicidal test. In a few lines: as §2
Experiment [11] relates to SETVI (Setaria viridis). The experiment is described as follows: greenhouse pre-emergence herbicidal test. Put shortly:
as §2

Experiment [12] concerns ECHCG (Echinocloa crus-galli). The experiment is described as follows: greenhouse pre-emergence herbicidal test. Put shortly: as §2
The test system of experiment [13] is POLCO (Polygonum convolvulus). The experiment is described as follows: greenhouse pre-emergence herbicidal test. To be noted: 1000 g/ha. In a few lines:
as §2

Results on 25 compounds are retold here after patent US9549558B2, “Herbicidal azines” (BASF SE, priority 2012, dated 2017).

With `CC(C)(Cl)c1nc(N)nc(Nc2c(F)c(F)c(F)c(F)c2F)n1` [Example 1, 6-(1-chloro-1-methyl-ethyl)-N4-(2,3,4,5,6-pentafluorophenyl)-1,3,5-triazine-2,4-diamine], the herbicidal activity result in experiment [1] (0.125 kg/ha) and in experiment [2] (0.125 kg/ha) was “very good (a very good herbicidal activity is given at values of at least 85)” in each case.
For the compound `CC(C)(F)c1nc(N)nc(Nc2c(F)c(F)cc(F)c2F)n1` [Example 2, 6-(1-Fluoro-1-methyl-ethyl)-N4-(2,3,5,6-tetrafluorophenyl)-1,3,5-triazine-2,4-diamine], the herbicidal activity result in [3] and in [4] (0.125 kg/ha) was “very good (a very good herbicidal activity is given at values of at least 85)” throughout.
On to `CCc1nc(N)nc(Nc2c(F)c(F)c(F)c(F)c2F)n1` [Example 4], for which the herbicidal activity entry was “very good (a very good herbicidal activity is given at values of at least 85)” in [5] (0.125 kg/ha, CAPBP) and “very good (a very good herbicidal activity is given at values of at least 85)” in [6] (0.125 kg/ha).
On to `CC(C)c1nc(N)nc(Nc2c(F)c(F)c(F)c(F)c2F)n1` [Example 7], for which the herbicidal activity entry in experiment [7] (0.125 kg/ha) and in [8] (0.125 kg/ha) was “very good (a very good herbicidal activity is given at values of at least 85)” throughout.
Take `CC(F)(F)c1nc(N)nc(Nc2c(F)c(F)c(F)c(F)c2F)n1` [Example 9]: the herbicidal activity result in experiment [7] (0.062 kg/ha) and in experiment [8] (0.062 kg/ha) was “very good (a very good herbicidal activity is given at values of at least 85)” in each case.
`CC(F)c1nc(N)nc(Nc2cc(F)c(F)c(F)c2)n1` (stereo not shown) [Example 16]: the herbicidal activity result is on record as “moderate (A moderate herbicidal activity is given at values of at least 60)” in [1] (0.125 kg/ha) and “good (a good herbicidal activity is given at values of at least 70)” in experiment [8] (0.125 kg/ha).
For the compound `CC(C)(F)c1nc(N)nc(Nc2c(F)ccc(F)c2F)n1` [Example 27], the herbicidal activity result in [4] (0.062 kg/ha) and in [2] (0.062 kg/ha) was “very good (a very good herbicidal activity is given at values of at least 85)” each time.
Consider `CC(C)(F)c1nc(N)nc(Nc2c(F)ccc(Cl)c2F)n1` [Example 32], for which the herbicidal activity entry in experiment [7] (0.062 kg/ha) and in [9] was “very good (a very good herbicidal activity is given at values of at least 85)” throughout.
As for `CC(C)(F)c1nc(N)nc(Nc2c(F)cccc2Cl)n1` [Example 35], the herbicidal activity entry in experiment [1] (0.062 kg/ha) and in experiment [8] (0.062 kg/ha) was “very good (a very good herbicidal activity is given at values of at least 85)” each time.
In the case of `CCC(C)(F)c1nc(N)nc(Nc2c(F)c(F)c(F)c(F)c2F)n1` (stereo not shown) [Example 48], the herbicidal activity entry in experiment [1] (0.125 kg/ha) and in [2] (0.125 kg/ha) was “very good (a very good herbicidal activity is given at values of at least 85)” in each case.
For the compound `CCC(F)(CC)c1nc(N)nc(Nc2c(F)c(F)c(F)c(F)c2F)n1` [Example 49], the herbicidal activity entry in [7] (0.125 kg/ha) and in experiment [3] was “very good (a very good herbicidal activity is given at values of at least 85)” each time.
Consider `CC(C)(C)c1nc(N)nc(Nc2c(F)c(F)c(F)c(F)c2F)n1` [Example 52], for which the herbicidal activity entry in [7] (0.062 kg/ha) and in [8] (0.062 kg/ha) was “very good (a very good herbicidal activity is given at values of at least 85)” throughout.
Consider `Nc1nc(Nc2c(F)c(F)c(F)c(F)c2F)nc(C2CCC2)n1` [Example 57], for which the herbicidal activity result in experiment [4] (0.062 kg/ha) and in [2] (0.062 kg/ha) was “very good (a very good herbicidal activity is given at values of at least 85)” throughout.
For the compound `CCC(C)c1nc(N)nc(Nc2c(F)c(F)c(F)c(F)c2F)n1` (stereo not shown) [Example 62], the herbicidal activity entry is listed as “very good (a very good herbicidal activity is given at values of at least 85)” in experiment [10] (125 g/ha); “very good (a very good herbicidal activity is given at values of at least 85)” in experiment [11] (125 g/ha); “very good (a very good herbicidal activity is given at values of at least 85)” in experiment [5] (125 g/ha, CAPBP).
Consider `CC(c1nc(N)nc(Nc2c(F)c(F)c(F)c(F)c2F)n1)C1CC1` (stereo not shown) [Example 63], for which the herbicidal activity entry in experiment [10] (125 g/ha), in [11] (125 g/ha) and in experiment [12] (125 g/ha) was “very good (a very good herbicidal activity is given at values of at least 85)” each time.
Take `Nc1nc(CCC(F)(F)F)nc(Nc2c(F)c(F)c(F)c(F)c2F)n1` [Example 73]: the herbicidal activity entry in experiment [10] (250 g/ha) is reported as “very good (a very good herbicidal activity is given at values of at least 85)”; in experiment [11] (250 g/ha), “very good (a very good herbicidal activity is given at values of at least 85)”; in experiment [5] (250 g/ha, CAPBP), “very good (a very good herbicidal activity is given at values of at least 85)”.
Take `CC1(c2nc(N)nc(Nc3c(F)c(F)c(F)c(F)c3F)n2)CCCCC1` [Example 88]: the herbicidal activity result is on record as “very good (a very good herbicidal activity is given at values of at least 85)” in [10] (125 g/ha); “very good (a very good herbicidal activity is given at values of at least 85)” in experiment [5] (125 g/ha, CAPBP); “very good (a very good herbicidal activity is given at values of at least 85)” in [6] (125 g/ha).
In the case of `CC(C)(F)c1nc(N)nc(Nc2c(F)cc(Cl)cc2F)n1` [Example 97], the herbicidal activity result is “good (a good herbicidal activity is given at values of at least 70)” in [5] (250 g/ha, CAPBP) and “good (a good herbicidal activity is given at values of at least 70)” in experiment [6] (250 g/ha).
Consider `CC(C)(Cl)c1nc(N)nc(Nc2c(F)c(F)cc(F)c2F)n1` [Example 111], for which the herbicidal activity result in experiment [11] (125 g/ha) was “very good (a very good herbicidal activity is given at values of at least 85)”; in experiment [5] (125 g/ha, CAPBP), “very good (a very good herbicidal activity is given at values of at least 85)”; in experiment [12] (125 g/ha) it was “very good (a very good herbicidal activity is given at values of at least 85)”.
Regarding `Nc1nc(Nc2ccc(Br)cc2F)nc(C(F)F)n1` [Example 157], the herbicidal activity result in experiment [8] (500 g/ha) and in [4] (500 g/ha) was “very good (a very good herbicidal activity is given at values of at least 85)” throughout.
In the case of `CC(C)(C)c1nc(N)nc(Nc2c(F)c(F)c(Br)c(F)c2F)n1` [Example 160], the herbicidal activity result is reported as “very good (a very good herbicidal activity is given at values of at least 85)” in experiment [10] (125 g/ha); “very good (a very good herbicidal activity is given at values of at least 85)” in experiment [5] (125 g/ha, CAPBP); “very good (a very good herbicidal activity is given at values of at least 85)” in experiment [6] (125 g/ha).
Consider `CC(C)(F)c1nc(N)nc(Nc2ccc(C(=O)O)cc2F)n1` [Example 173], for which the herbicidal activity result in experiment [4] (500 g/ha) is given as “good (a good herbicidal activity is given at values of at least 70)”.
For the compound `CC(C)(F)c1nc(N)nc(Nc2c(F)c(F)cc(-c3ccccc3)c2F)n1` [Example 192], the herbicidal activity result in [8] (1000 g/ha), in experiment [4] (1000 g/ha) and in experiment [2] (1000 g/ha) was “very good (a very good herbicidal activity is given at values of at least 85)” each time.
Consider `CCC(C)(Cl)c1nc(N)nc(Nc2c(F)c(F)c(F)c(F)c2F)n1` (stereo not shown) [Example 200], for which the herbicidal activity entry in experiment [13] is recorded as “very good (a very good herbicidal activity is given at values of at least 85)”; in experiment [5] (1000 g/ha, CACBP) it was “very good (a very good herbicidal activity is given at values of at least 85)”; in experiment [12] (1000 g/ha), “very good (a very good herbicidal activity is given at values of at least 85)”.
As for `CCC(C)(F)c1nc(NC(C)=O)nc(Nc2c(F)c(F)cc(F)c2F)n1` (stereo not shown) [Example 207], the herbicidal activity result in experiment [10] (125 g/ha) is recorded as “very good (a very good herbicidal activity is given at values of at least 85)”; in [11] (125 g/ha) it was “very good (a very good herbicidal activity is given at values of at least 85)”; in [5] (125 g/ha, CAPBP), “very good (a very good herbicidal activity is given at values of at least 85)”.
